Assay results as given in paper PMC5218480 (PLoS ONE, 2017).

Tested on: MV-4-11 cells
Test: Gene expression microarray analysis (Affymetrix PrimeView) and GSEA
Type: cell-based, human
Design: RFU PODN (11730768_x_at) / Fold change /veh PODN (11730768_x_at) / RFU LINC00158 (11744669_a_at) / Fold change /veh LINC00158 (11744669_a_at) / RFU DUSP10 (11751237_a_at) / Fold change /veh DUSP10 (11751237_a_at) / RFU ID3 (11757404_x_at) / Fold change /veh ID3 (11757404_x_at) / RFU PLEKHG5 (11737974_s_at) / Fold change /veh PLEKHG5 (11737974_s_at) / RFU LRRC4B (11730491_at) / Fold change /veh LRRC4B (11730491_at) / RFU GIMAP4 (11747438_a_at) / Fold change /veh GIMAP4 (11747438_a_at) / RFU KRT8 (11758183_x_at) / Fold change /veh KRT8 (11758183_x_at) / RFU CNN1 (11734310_a_at) / Fold change /veh CNN1 (11734310_a_at) / RFU VPS37D (11726825_at) / Fold change /veh VPS37D (11726825_at) / RFU C10orf10 (11716522_x_at) / Fold change /veh C10orf10 (11716522_x_at) / RFU KIR2DL2 /// KIR2DL4 /// KIR2DL5A /// KIR2DL5B /// KIR2DS1 /// KIR2DS2 /// KIR2DS3 /// KIR2DS4 /// KIR3DL3 /// KIR3DL3 /// KIR3DS1 (11738374_at) / Fold change /veh KIR2DL2 /// KIR2DL4 /// KIR2DL5A /// KIR2DL5B /// KIR2DS1 /// KIR2DS2 /// KIR2DS3 /// KIR2DS4 /// KIR3DL3 /// KIR3DL3 /// KIR3DS1 (11738374_at) / RFU C1QL1 (11718748_at) / Fold change /veh C1QL1 (11718748_at) / RFU TMPRSS4 (11747572_a_at) / Fold change /veh TMPRSS4 (11747572_a_at) / RFU HAMP (11756126_x_at) / Fold change /veh HAMP (11756126_x_at) / RFU RNFT2 (11725882_a_at) / Fold change /veh RNFT2 (11725882_a_at) / RFU NR4A2 (11747474_a_at) / Fold change /veh NR4A2 (11747474_a_at) / RFU ABCC12 (11746883_a_at) / Fold change /veh ABCC12 (11746883_a_at) / RFU TMEM136 (11760407_x_at) / Fold change /veh TMEM136 (11760407_x_at) / RFU CLDN22 /// WWC2 (11732394_at) / Fold change /veh CLDN22 /// WWC2 (11732394_at) / RFU HLA-DPB1 (11760878_x_at) / Fold change /veh HLA-DPB1 (11760878_x_at) / RFU SPINT1 (11716480_a_at) / Fold change /veh SPINT1 (11716480_a_at) / RFU GAP43 (11754022_s_at) / Fold change /veh GAP43 (11754022_s_at) / RFU A4GNT (11735810_at) / Fold change /veh A4GNT (11735810_at) / RFU PRB3 (11715151_x_at) / Fold change /veh PRB3 (11715151_x_at) / RFU TUBB4B (11761932_at) / Fold change /veh TUBB4B (11761932_at) / RFU CAPN14 (11732068_a_at) / Fold change /veh CAPN14 (11732068_a_at) / RFU TMCC2 (11721928_a_at) / Fold change /veh TMCC2 (11721928_a_at) / RFU IRGQ (11745062_a_at) / Fold change /veh IRGQ (11745062_a_at) / RFU FAM174B (11720279_a_at) / Fold change /veh FAM174B (11720279_a_at) / RFU TMPRSS4 (11748680_a_at) / Fold change /veh TMPRSS4 (11748680_a_at) / RFU FAM212B (11763350_a_at) / Fold change /veh FAM212B (11763350_a_at) / RFU PLEKHG5 (11743358_a_at) / Fold change /veh PLEKHG5 (11743358_a_at) / RFU ZSCAN30 (11745921_a_at) / Fold change /veh ZSCAN30 (11745921_a_at) / RFU CMKLR1 (11741424_a_at) / Fold change /veh CMKLR1 (11741424_a_at) / RFU LOC101060620 /// MAPK8IP1 (11723275_at) / Fold change /veh LOC101060620 /// MAPK8IP1 (11723275_at) / RFU SPTSSB (11747773_x_at) / Fold change /veh SPTSSB (11747773_x_at) / RFU PRSS12 (11739890_at) / Fold change /veh PRSS12 (11739890_at) / RFU BIN1 (11741810_x_at) / Fold change /veh BIN1 (11741810_x_at) / RFU WNT11 (11732464_a_at) / Fold change /veh WNT11 (11732464_a_at) / RFU C10orf10 (11716521_a_at) / Fold change /veh C10orf10 (11716521_a_at) / RFU C5orf56 (11738089_at) / Fold change /veh C5orf56 (11738089_at) / RFU CYB561 (11721691_x_at) / Fold change /veh CYB561 (11721691_x_at) / RFU ANKRD19P (11752326_a_at) / Fold change /veh ANKRD19P (11752326_a_at) / RFU OR2T12 /// OR2T33 /// OR2T8 (11738714_s_at) / Fold change /veh OR2T12 /// OR2T33 /// OR2T8 (11738714_s_at) / RFU VCAN (11748164_a_at) / Fold change /veh VCAN (11748164_a_at) / RFU JSRP1 (11732532_at) / Fold change /veh JSRP1 (11732532_at) / RFU KRTAP10-11 (11738290_x_at) / Fold change /veh KRTAP10-11 (11738290_x_at) / RFU MYO3A (11730013_a_at) / Fold change /veh MYO3A (11730013_a_at) / RFU EBF3 (11725865_a_at) / Fold change /veh EBF3 (11725865_a_at) / RFU CAMK2N1 (11719241_x_at) / Fold change /veh CAMK2N1 (11719241_x_at) / RFU C5orf56 (11738088_a_at) / Fold change /veh C5orf56 (11738088_a_at) / RFU OLFML3 (11715873_a_at) / Fold change /veh OLFML3 (11715873_a_at) / RFU LOC100653217 /// NTM (11731650_a_at) / Fold change /veh LOC100653217 /// NTM (11731650_a_at) / RFU MAPK11 (11762145_a_at) / Fold change /veh MAPK11 (11762145_a_at) / RFU FIZ1 (11724087_x_at) / Fold change /veh FIZ1 (11724087_x_at) / RFU OASL (11726364_x_at) / Fold change /veh OASL (11726364_x_at) / RFU SOX15 (11748057_x_at) / Fold change /veh SOX15 (11748057_x_at) / RFU CD79A (11719716_a_at) / Fold change /veh CD79A (11719716_a_at) / RFU HIST1H1D (11736915_at) / Fold change /veh HIST1H1D (11736915_at) / RFU CASKIN2 (11723855_a_at) / Fold change /veh CASKIN2 (11723855_a_at) / RFU LOC730098 (11760151_x_at) / Fold change /veh LOC730098 (11760151_x_at) / RFU OR4N2 (11742367_at) / Fold change /veh OR4N2 (11742367_at) / RFU PRRT2 (11749266_a_at) / Fold change /veh PRRT2 (11749266_a_at) / RFU SNX32 (11753110_a_at) / Fold change /veh SNX32 (11753110_a_at) / RFU CDHR5 (11726645_a_at) / Fold change /veh CDHR5 (11726645_a_at) / RFU RCAN1 (11760418_a_at) / Fold change /veh RCAN1 (11760418_a_at) / RFU FAM167A (11723789_a_at) / Fold change /veh FAM167A (11723789_a_at) / RFU FAM26E (11764081_at) / Fold change /veh FAM26E (11764081_at) / RFU ISYNA1 (11749810_s_at) / Fold change /veh ISYNA1 (11749810_s_at) / RFU ACY1 (11761880_at) / Fold change /veh ACY1 (11761880_at) / RFU 11764098_at / Fold change /veh 11764098_at / RFU SAMD14 (11745864_x_at) / Fold change /veh SAMD14 (11745864_x_at) / RFU NPB (11741838_a_at) / Fold change /veh NPB (11741838_a_at) / RFU TMPRSS6 (11731388_a_at) / Fold change /veh TMPRSS6 (11731388_a_at) / RFU KRTAP10-2 (11738614_at) / Fold change /veh KRTAP10-2 (11738614_at) / RFU ARHGAP8 /// PRR5-ARHGAP8 (11727945_x_at) / Fold change /veh ARHGAP8 /// PRR5-ARHGAP8 (11727945_x_at) / RFU KRTAP5-7 /// NADSYN1 (11734609_at) / Fold change /veh KRTAP5-7 /// NADSYN1 (11734609_at) / RFU RASL12 (11751679_a_at) / Fold change /veh RASL12 (11751679_a_at) / RFU CDKN2B (11736163_a_at) / Fold change /veh CDKN2B (11736163_a_at) / RFU PRF1 (11729649_at) / Fold change /veh PRF1 (11729649_at) / RFU, ZNF638 /// ZNF638-IT1 / Fold change vs veh, ZNF638 /// ZNF638-IT1 / RFU, PANK3 / Fold change vs veh, PANK3 / RFU, SH3YL1 / Fold change vs veh, SH3YL1 / RFU, ZEB2 / Fold change vs veh, ZEB2 / RFU, NRIP1 / Fold change vs veh, NRIP1 / RFU, PTTG1IP / Fold change vs veh, PTTG1IP / RFU, CAPN2 / Fold change vs veh, CAPN2 / RFU, MED14 / Fold change vs veh, MED14 / RFU, SNORA58 / Fold change vs veh, SNORA58 / RFU, C1orf63 / Fold change vs veh, C1orf63 / RFU, LRRFIP1 / Fold change vs veh, LRRFIP1 / RFU, NDUFAF7 / Fold change vs veh, NDUFAF7 / RFU, SLC12A2 / Fold change vs veh, SLC12A2 / RFU, IBTK / Fold change vs veh, IBTK / RFU, ESF1 / Fold change vs veh, ESF1 / Fold change vs veh, TMEM50B / RFU, TAOK1 / Fold change vs veh, TAOK1 / RFU, ACBD3 / Fold change vs veh, ACBD3 / RFU, TMA16 / Fold change vs veh, TMA16 / RFU, RWDD3 / Fold change vs veh, RWDD3 / RFU, BCAT1 / Fold change vs veh, BCAT1 / RFU, EDEM3 / Fold change vs veh, EDEM3 / RFU, TMEM33 / Fold change vs veh, TMEM33 / RFU, WDR75 / Fold change vs veh, WDR75 / RFU, AHCTF1 / Fold change vs veh, AHCTF1 / RFU, TFRC / Fold change vs veh, TFRC / RFU, ZDHHC17 / Fold change vs veh, ZDHHC17 / RFU, NOM1 / Fold change vs veh, NOM1 / RFU, ARL8B / Fold change vs veh, ARL8B / RFU, ZBTB11 / Fold change vs veh, ZBTB11 / RFU, TAMM41 / Fold change vs veh, TAMM41 / RFU, KIAA1704 /// LOC100996395 / Fold change vs veh, KIAA1704 /// LOC100996395 / RFU, ING1 / Fold change vs veh, ING1 / RFU, TRMT61B / Fold change vs veh, TRMT61B / RFU, FUBP3 / Fold change vs veh, FUBP3 / RFU, TP53 / Fold change vs veh, TP53 / RFU, TNKS2 / Fold change vs veh, TNKS2 / RFU, ZFP14 / Fold change vs veh, ZFP14 / RFU, ACTR2 / Fold change vs veh, ACTR2 / RFU, PPP3R1 / Fold change vs veh, PPP3R1 / RFU, PIK3R1 / Fold change vs veh, PIK3R1 / RFU, HNRNPA1 / Fold change vs veh, HNRNPA1 / RFU, RNF170 / Fold change vs veh, RNF170 / RFU, ZNF28 / Fold change vs veh, ZNF28 / RFU, RNGTT / Fold change vs veh, RNGTT / RFU, OGT / Fold change vs veh, OGT / RFU, BRD1 / Fold change vs veh, BRD1 / RFU, MARS / Fold change vs veh, MARS / RFU, ZNF655 / Fold change vs veh, ZNF655 / RFU, FAHD1 / Fold change vs veh, FAHD1 / RFU, BDP1 / Fold change vs veh, BDP1 / RFU, LRRCC1 / Fold change vs veh, LRRCC1 / RFU, ARID1A / Fold change vs veh, ARID1A / RFU, ZNF146 / Fold change vs veh, ZNF146 / RFU, ZNF330 / Fold change vs veh, ZNF330 / RFU, GPN3 / Fold change vs veh, GPN3 / RFU, C9orf123 / Fold change vs veh, C9orf123 / RFU, N4BP2L2 / Fold change vs veh, N4BP2L2 / RFU, ARFIP1 / Fold change vs veh, ARFIP1 / RFU, FAM179B / Fold change vs veh, FAM179B / RFU, BCL10 / Fold change vs veh, BCL10 / RFU, UHRF1BP1L / Fold change vs veh, UHRF1BP1L / RFU, BET1 / Fold change vs veh, BET1 / RFU, CNOT2 / Fold change vs veh, CNOT2 / RFU, ZNF268 / Fold change vs veh, ZNF268 / Fold change vs veh, ZNF507 / RFU, DGCR2 / Fold change vs veh, DGCR2 / RFU, WDSUB1 / Fold change vs veh, WDSUB1 / Fold change vs veh, HSP90B1 /// MIR3652 / RFU, ADSS / Fold change vs veh, ADSS / RFU, GK / Fold change vs veh, GK / RFU, ZNF148 / Fold change vs veh, ZNF148 / RFU, TAF9 / Fold change vs veh, TAF9 / RFU, SLC1A5 / Fold change vs veh, SLC1A5 / RFU, SLMO2 / Fold change vs veh, SLMO2 / RFU, ABCC4 / Fold change vs veh, ABCC4 / RFU, LOC101060439 /// RAP1B / Fold change vs veh, LOC101060439 /// RAP1B / RFU, RFX7 / Fold change vs veh, RFX7 / RFU, GTPBP10 / Fold change vs veh, GTPBP10 / RFU, CNEP1R1 / Fold change vs veh, CNEP1R1 / RFU, BIVM-ERCC5 /// ERCC5 / Fold change vs veh, BIVM-ERCC5 /// ERCC5 / RFU, ILF3 / Fold change vs veh, ILF3 / RFU 11762660_at / Fold change /veh 11762660_at / RFU VCAN (11757783_s_at) / Fold change /veh VCAN (11757783_s_at) / RFU DDX43 (11728927_at) / Fold change /veh DDX43 (11728927_at) / RFU KRT8 (11758188_x_at) / Fold change /veh KRT8 (11758188_x_at) / RFU NKD1 (11759106_at) / Fold change /veh NKD1 (11759106_at) / RFU SRD5A1 (11742802_a_at) / Fold change /veh SRD5A1 (11742802_a_at) / RFU TPSAB1 /// TPSB2 (11721975_s_at) / Fold change /veh TPSAB1 /// TPSB2 (11721975_s_at) / RFU GSTM3 (11746129_a_at) / Fold change /veh GSTM3 (11746129_a_at) / RFU IL23R (11737362_x_at) / Fold change /veh IL23R (11737362_x_at) / RFU TMEM51 (11727254_a_at) / Fold change /veh TMEM51 (11727254_a_at) / RFU PIWIL2 (11732686_x_at) / Fold change /veh PIWIL2 (11732686_x_at) / RFU ORM1 (11744905_x_at) / Fold change /veh ORM1 (11744905_x_at) / RFU CCDC152 (11743942_at) / Fold change /veh CCDC152 (11743942_at) / RFU ECM1 (11717891_a_at) / Fold change /veh ECM1 (11717891_a_at) / RFU IL23R (11748794_a_at) / Fold change /veh IL23R (11748794_a_at) / RFU TNFAIP8L3 (11732012_x_at) / Fold change /veh TNFAIP8L3 (11732012_x_at) / RFU MBOAT4 (11741988_at) / Fold change /veh MBOAT4 (11741988_at) / RFU 11764193_at / Fold change /veh 11764193_at / RFU TMEM53 (11763286_at) / Fold change /veh TMEM53 (11763286_at) / RFU MAGEB2 (11727129_at) / Fold change /veh MAGEB2 (11727129_at) / RFU TMEM200A (11744735_a_at) / Fold change /veh TMEM200A (11744735_a_at) / RFU CCDC152 (11751479_a_at) / Fold change /veh CCDC152 (11751479_a_at) / RFU FAM211A (11726209_a_at) / Fold change /veh FAM211A (11726209_a_at) / RFU RGS16 (11746705_a_at) / Fold change /veh RGS16 (11746705_a_at) / RFU VCAN (11755009_s_at) / Fold change /veh VCAN (11755009_s_at) / RFU RHOB (11743442_s_at) / Fold change /veh RHOB (11743442_s_at) / RFU RGS16 (11720943_a_at) / Fold change /veh RGS16 (11720943_a_at) / RFU RGS16 (11720944_at) / Fold change /veh RGS16 (11720944_at) / RFU, VPS4B / Fold change vs veh, VPS4B / RFU, CREB1 / Fold change vs veh, CREB1 / RFU, DNAJC13 / Fold change vs veh, DNAJC13 / RFU, GNAQ / Fold change vs veh, GNAQ / RFU, CDK5R1 / Fold change vs veh, CDK5R1 / RFU, ZRANB3 / Fold change vs veh, ZRANB3 / RFU, CUL4A / Fold change vs veh, CUL4A / RFU, CCNY / Fold change vs veh, CCNY / RFU, UFL1 / Fold change vs veh, UFL1 / RFU, COG3 / Fold change vs veh, COG3 / RFU, DIAPH2 / Fold change vs veh, DIAPH2 / RFU, SKA2 / Fold change vs veh, SKA2 / RFU, AFF3 / Fold change vs veh, AFF3 / RFU, LMF1 / Fold change vs veh, LMF1 / RFU, IPO11 / Fold change vs veh, IPO11 / RFU, DFFB / Fold change vs veh, DFFB / RFU, FOXP1 / Fold change vs veh, FOXP1 / RFU, CARD8 / Fold change vs veh, CARD8 / RFU, STRN3 / Fold change vs veh, STRN3 / RFU, ADK / Fold change vs veh, ADK / RFU, RASSF2 / Fold change vs veh, RASSF2 / RFU, WIPF1 / Fold change vs veh, WIPF1 / RFU, LARP1B / Fold change vs veh, LARP1B / RFU, RASA1 / Fold change vs veh, RASA1 / RFU, RB1 / Fold change vs veh, RB1 / RFU, PPFIA1 / Fold change vs veh, PPFIA1 / RFU, MAT2A / Fold change vs veh, MAT2A / RFU, CCT5 / Fold change vs veh, CCT5 / RFU, WDR92 / Fold change vs veh, WDR92 / RFU, CUX1 / Fold change vs veh, CUX1 / RFU, TTC7A / Fold change vs veh, TTC7A / RFU, TMEM135 / Fold change vs veh, TMEM135 / RFU, DEPTOR / Fold change vs veh, DEPTOR / RFU, CPM / Fold change vs veh, CPM / RFU, DNAJB6 / Fold change vs veh, DNAJB6 / RFU, CACNA2D3 / Fold change vs veh, CACNA2D3 / RFU, DTX4 / Fold change vs veh, DTX4 / RFU, TFCP2 / Fold change vs veh, TFCP2 / RFU, GMCL1 /// GMCL1P1 / Fold change vs veh, GMCL1 /// GMCL1P1 / RFU, AEBP2 / Fold change vs veh, AEBP2 / RFU, SNHG1 /// SNORD22 /// SNORD25 /// SNORD26 /// SNORD27 /// SNORD28 /// SNORD29 /// SNORD31 / Fold change vs veh, SNHG1 /// SNORD22 /// SNORD25 /// SNORD26 /// SNORD27 /// SNORD28 /// SNORD29 /// SNORD31 / Fold change (Aza/veh), C12orf56 (ProbeSet 11735607_a_at) / Fold change (ACY-1035/veh), C12orf56 (ProbeSet 11735607_a_at) / Fold change (Aza/veh), FGFR1OP (ProbeSet 11751329_s_at) / Fold change (ACY-1035/veh), FGFR1OP (ProbeSet 11751329_s_at) / Fold change (Aza/veh), VPS36 (ProbeSet 11739960_a_at) / Fold change (ACY-1035/veh), VPS36 (ProbeSet 11739960_a_at) / RFU SYPL1 (11715823_x_at) / Fold change /veh SYPL1 (11715823_x_at) / RFU IGFBP7 (11715501_s_at) / Fold change /veh IGFBP7 (11715501_s_at) / RFU REEP3 (11722064_at) / Fold change /veh REEP3 (11722064_at) / RFU IGLL1 (11728026_x_at) / Fold change /veh IGLL1 (11728026_x_at): dose or concentration left out as unconfirmed
Conditions: MV-4-11 cells, 48 hours

Nc1ncn([C@@H]2O[C@H](CO)[C@@H](O)[C@H]2O)c(=O)n1 [azacitidine]
RFU EBF3 (11725865_a_at): 64.76 RFU
